Where two headings read alike, the source gives them in different places.

From patent US9725460B2, “Oridonin analogs, compositions, and methods related thereto” (THE BOARD OF REGENTS OF THE UNIVERSITY OF TEXAS SYSTEM, priority 2013, dated 2017) come the findings set out here.

For one data set, the system named is AsPC1. Kind of data set: Cancer cell proliferation assay, AsPC1. It counts as cell-based. The conditions noted are these: Homo sapiens, ASPC1; Table 2a; A-ring modified analogues; read-out: IC50 (μM) AsPC1. As for the experimental part: (§1) In Vitro Determination of Effects of Synthesized Diterpenoids on Cancer Cell Proliferation. […] Then MTT solution was removed, and 150 μL of DMSO was added to each well. Absorbance of all wells was determined by measuring OD at 550 nm after a 10 min incubation on a 96-well GlowMaxate absorbance reader (Promega, Madison, Wis.). Each individual compound was tested in quadruplicate wells for each concentration.

For another data set, the system named is MCF-7. Description: MTT cancer cell proliferation assay, MCF-7. The settings on record: Homo sapiens. The data set is classed as cell-based, human. The gist of the method:
(§2)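 Cells seeded at 1×10^4/well and exposed 48 h to 0.01-100 μM compound (0.01, 0.1, 1, 5, 10, 100 μM) or DMSO. MTT added for a further 4 h, formazan dissolved in DMSO and OD read at 550 nm; quadruplicate wells per concentration. MCF-7 is ER-positive; MDA-MB-231 ER-negative, triple-negative.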

A further data set deals with MDA-MB-231. Description: MTT cancer cell proliferation assay, MDA-MB-231. The conditions noted are these: Homo sapiens. It counts as cell-based, human. The gist of the method:
as §2

For data set [1], the system named is breast, pancreatic, and prostate cancer cell lines. Description: Anti-proliferation effects against cancer cell lines. It counts as cell-based, human. The settings on record: summary of Tables 1 and 2. As for the experimental part:
In Vitro Determination of Effects of Synthesized Diterpenoids on Cancer Cell Proliferation. Breast cancer cell lines MCF-7, MDA-MB-231, […] and MCF/ADR were seeded in 96-well plates at a density of 1×10^4 cells/well and treated with DMSO and 0.01, 0.1, 1, 5, 10, and 100 μM of individual compound for 48 h, and then 20 μL of 3-(4,5-dimethylthiazol-2-yl)-2,5-diphenyltetrazolium bromide (MTT) (5 mg/mL in PBS) was added to each well and further incubated for another 4 h. Then MTT solution was removed, and 150 μL of DMSO was added to each well. Absorbance of all wells was determined by measuring OD at 550 nm after a 10 min incubation on a 96-well GlowMaxate absorbance reader (Promega, Madison, Wis.). Each individual compound was tested in quadruplicate wells for each concentration.

Data set [2] deals with xenograft tumors (breast cancer MDA-MB-231). Kind of data set: MDA-MB-231 xenograft tumor growth in mice. It counts as in vivo. The conditions noted are these: 5.0 mg/kg ip; triple-negative MDA-MB-231 xenograft; p<0.0001. The text has this: (§3) FIG. 14. […] Values are mean±SE of three independent experiments.
(§4) In pilot in vivo studies, this compound was further evaluated for its anticancer activity in suppression of tumor growth in the triple-negative breast cancer MDA-MB-231 xenograft model.

Data set [3] can be described thus: Body weight and tolerability in xenograft mice. The settings on record: 5.0 mg/kg ip.
From the text: as §3, §4

A further data set concerns HMEC cells. Kind of data set: Toxicity in HMEC cells. The data set is classed as cell-based.
A further data set relates to Panc-1. Kind of data set: Cancer cell proliferation assay, Panc-1. The data set is classed as cell-based. The settings on record: Homo sapiens, PANC-1; Table 2a; A-ring modified analogues; read-out: IC50 (μM) Panc-1. The method, then:
as §1

For a further data set, the system named is MCF-7/ADR. Kind of data set: MTT growth inhibition, drug-resistant MCF-7/ADR. The conditions noted are these: Homo sapiens, NCI/ADR-RES, 24 h, Table 1d; drug-resistant breast cancer cells; mean ± SE of three experiments. It counts as cell-based.
The next data set has as its system MDA-MB-231 cells. Description: Colony formation in MDA-MB-231 cells. It counts as cell-based.

With `C=C1C(=O)[C@@]23[C@@H]4OC(C)(C)OC25OC[C@]2(C=CC(=O)C(C)(C)[C@H]2[C@@H]5O)[C@@H]3CC[C@@H]14` [CYD-6-86, (3S,3aR,3a^1R,6aR,7S,7aS,11aR,11bS)-7-hydroxy-5,5,8,8-tetramethyl-15-methylene-3,3a,7,7a,8,11b-hexahydro-1H-6a,11a-(epoxymethano)-3,3a^1-ethanophenanthro[1,10-de][1,3]dioxine-9,14(2H)-dione], the IC50 (as a rule, the midpoint of a concentration-inhibition curve) in the data set on AsPC1 came out at 0.81 µM; in the data set on MCF-7 (MCF7, Table 1c, dienone analogues, mean ± SE of three experiments, read-out: Antiproliferative effect MCF-7 (IC50)), 0.98 ± 0.19 µM; in the data set with MCF-7 (MCF7, Table 2a, A-ring modified analogues, read-out: IC50 (μM) MCF-7) it was 0.86 µM; with MDA-MB-231 (MDA-MB-231, Table 1c, dienone analogues, mean ± SE of three experiments, read-out: Antiproliferative effect MDA-MB-231 (IC50)), 5.6 ± 1.06 µM; in the data set on MDA-MB-231 (MDA-MB-231, Table 2a, A-ring modified analogues, read-out: IC50 (μM) MDA-MB-231), 4.39 µM; in the data set on Panc-1, 6.49 µM. In the data set on MCF-7/ADR, this compound yielded an IC50 of 6.02 ± 1.28 µM. Further, the “IC50 values, anti-proliferation effects against cancer cell lines” value in [1] is reported as “low micromolar to nanomolar”. Besides, the “Inhibition of xenograft tumor growth compared to oridonin at the same dose” value in data set [2] is on record as “much more efficacious in suppressing xenograft tumor growth”. Besides, the “Loss of body weight” value in data set [3] was “no significant loss of body weight”. Further, in [3], the “Tolerability during the experiments” value was “well tolerated”. Also, the “Toxicity in HMEC cells” value in the data set with HMEC cells was “lower toxicity”. Moreover, the “Antiproliferative and colony formation inhibitory effects in MDA-MB-231 cells” value in the data set with MDA-MB-231 cells is “potent antiproliferative and colony formation inhibitory effects”.
